# Legend:
# Assay type in all cases: in vivo
# [1] = tested on: beet armyworm (Spodoptera exigua) larvae; assay: Beet armyworm mortality on artificial diet (LAPHEG); settings: 168 h, 4000 μg/ml, with piperonyl butoxide (approx. 1:4), mortality seven days after treatment, read-out: LAPHEG: % mortality against beet armyworm on artificial diet
# Protocol: (§1) The compounds identified in TABLE 2 were prepared using the procedures illustrated in the previous examples and these compounds were tested against beet armyworm, mosquito, fruit fly, and cotton aphid using protocols described after.
# (§2) Compounds were evaluated on mosquito (Aedes aegypti) larvae, beet armyworm (Spodoptera exigua) larvae, fruit fly (Drosophila melanogaster) adults and cotton aphid (Aphis gossypi). Newly hatched mosquito larvae (about 50 larvae/well) in 96-well microtiter plates in 230 ul of water containing powdered liver/yeast extract (1 gr/100 ml) were treated with 20 ppm solution of the test compound. Following treatment the plates were covered with a lid and mortality was determined three days after treatment. Beet armyworm eggs (about 5 per well) were placed on artificial diet (in a 96-well microtiter plate) treated with a 4000 ppm solution of a test compound in combination with piperonyl butoxide (in approximate ratio of 1:4). After infestation, the plates were covered with a lid and mortality was determined seven days following treatment. Five-day old fruit fly adults (about 5/well) were placed in deep-well microtiter plates containing 250 ul/well of a 2% agar-10% sucrose mixture that had been treated with a 4000 ppm solution of a test compound. Following infestation, the plates were covered with a lid and mortality was determined three days after treatment. Treatments for the mosquito and armyworm were replicated six times each, that of the fruit fly three times each.
# [2] = tested on: mosquito (Aedes aegypti) larvae; assay: Mosquito larvae mortality (AEDSAE); settings: 72 h, 20 μg/ml, mortality three days after treatment, read-out: AEDSAE: % mortality against mosquito larvae
# Protocol: as §1, §2
# [3] = tested on: fruit fly (Drosophila melanogaster) adults; assay: Adult fruit fly mortality on artificial diet (DROSME); settings: 72 h, 4000 μg/ml, mortality three days after treatment, read-out: DROSME: % mortality against adult fruit fly on artificial diet
# Protocol: as §1, §2
# [4] = tested on: cotton aphid (Aphis gossypi); assay: Cotton aphid foliar spray test on squash (CA 200); settings: 72 h, squash cotyledons, 3 days, Corrected % Control (Abbott), read-out: CA 200: % control against cotton aphid in foliar spray tests
# Protocol: The compounds identified in TABLE 2 were prepared using the procedures illustrated in the previous examples and these compounds were tested against beet armyworm, mosquito, fruit fly, and cotton aphid using protocols described after. […]
# Squash with fully expanded cotyledon leaves were trimmed to one cotyledon per plant and infested with cotton aphid (wingless adult and nymph) 1 day prior to chemical application.
# Each plant is examined before chemical application to ensure proper infestation (ca. 30-70 aphids per plant). Compounds (3 mg) were dissolved in 3 mL of acetone:methanol (50:50) solvent, forming stock solutions of 1000 ppm. The stock solutions were then diluted with 0.025% Tween 20 (in H2O) to make […]. A hand-held Devilbiss sprayer was used to apply the spray solutions until runoff to both sides of the squash cotyledon leaves. Four plants (4 replications) were used for each concentration of each compound. Reference plants (solvent check) were sprayed with 0.025% Tween 20 only. Treated plants were held in a holding room for 3 days at approximately 23° C. and 40% RH before the number of live aphids on each plant was recorded. Insecticidal activity was measured by Corrected % Control using Abbott's correction formula and presented in TABLE 2: Corrected % Control=100*(X−Y)/X • where X=No. of live aphids on solvent check plants • Y=No. of live aphids on treated plants
# [5] = tested on: Leptosphaeria nodorum=Stagnospora nodorum; assay: Fungicidal test for LEPTNO, glume blotch of wheat, one day protectant; settings: 24 h, wheat plants (variety Yuma), sprayed one day before inoculation
# Protocol: (§3) The compounds identified in Table 4 were prepared using the procedures illustrated in the previous examples and these compounds were tested against wheat glume blotch and wheat leaf blotch using the protocols described herein. Fungicidal Test for […] Each pot contained 3-20 seedlings. These plants were sprayed until wet with the formulated test compound at a rate of 25 ppm. On the following day, the leaves were inoculated with an aqueous spore suspension of Leptosphaeria nodorum and the plants were kept in high humidity (one day in a dark dew chamber followed by four to seven days in a lighted dew chamber) to permit spores to germinate and infect the leaf. The plants were then transferred to a greenhouse until disease developed on untreated control plants.
# [6] = tested on: Mycosphaerella graminicola=Septoria tritici; assay: Fungicidal test for SEPTTR, speckled leaf blotch of wheat, one day protectant; settings: 24 h, wheat plants (variety Monon), sprayed one day before inoculation
# Protocol: as §3, with “Speckled Leaf Blotch of Wheat (Mycosphaerella graminicola=Septoria tritici; Bayer code […]): Wheat plants (variety Monon) were grown from seed in a greenhouse in 50% pasteurized soil/50% soil-less mix until the first true leaf was fully expanded, with 3-8 seedlings per pot.” for “Each pot contained 3-20 seedlings.”, “Septoria tritici” for “Leptosphaeria nodorum”, “leaf” for “leaf.”
structure (smiles),measurement,setting,value
FC(F)(F)c1ccccc1CCN1CCN(Cc2ccc3ccccc3c2)CC1 [Compound 80],mortality at 4000 µg/mL,[1],26 to 49%
same,mortality at 20 µg/mL,[2],1 to 25%
same,mortality at 4000 µg/mL,[3],1 to 25%
same,pest or weed control at 200 ppm,[4],26 to 49%
same,pest or weed control at 25 ppm,[5],50 to 100%
same,pest or weed control at 25 ppm,[6],50 to 100%
FC(F)(F)c1ccccc1CCN1CCN(Cc2csc3ccc(Cl)cc23)CC1 [Compound 88],mortality at 4000 µg/mL,[1],1 to 25%
same,mortality at 20 µg/mL,[2],1 to 25%
same,mortality at 4000 µg/mL,[3],1 to 25%
same,pest or weed control at 200 ppm,[4],50 to 100%
same,pest or weed control at 25 ppm,[5],1 to 25%
same,pest or weed control at 25 ppm,[6],50 to 100%
c1ccc(CCCN2CCN(Cc3ccc4ccccc4c3)CC2)cc1 [Compound 118],pest or weed control at 25 ppm,[5],50 to 100%
same,pest or weed control at 25 ppm,[6],50 to 100%
c1ccc(COc2ccc(CN3CCN(CCOc4ccccc4)CC3)cc2)cc1 [Compound 111],pest or weed control at 25 ppm,[5],50 to 100%
same,pest or weed control at 25 ppm,[6],50 to 100%
CC(c1ccccc1)N1CCN(Cc2ccc3ccccc3c2)CC1 (centres unmarked) [Compound 187],pest or weed control at 25 ppm,[5],50 to 100%
same,pest or weed control at 25 ppm,[6],50 to 100%
c1ccc(-c2ccccc2CN2CCN(CCc3ccccn3)CC2)cc1 [Compound 110],pest or weed control at 25 ppm,[5],1 to 25%
same,pest or weed control at 25 ppm,[6],50 to 100%
CC(c1ccccc1)N1CCN(Cc2cccc(-n3cccc3)c2)CC1 (centres unmarked) [Compound 234],pest or weed control at 25 ppm,[5],50 to 100%
same,pest or weed control at 25 ppm,[6],1 to 25%
FC(F)(F)c1ccccc1CCN1CCN(Cc2cccc(-n3cccc3)c2)CC1 [Compound 119],pest or weed control at 25 ppm,[5],50 to 100%
same,pest or weed control at 25 ppm,[6],26 to 49%
c1ccc(CCN2CCN(Cc3ccc(OCc4ccccc4)cc3)CC2)cc1 [Compound 112],pest or weed control at 25 ppm,[5],1 to 25%
same,pest or weed control at 25 ppm,[6],50 to 100%
CC(c1ccccc1)N1CCN(Cc2csc3ccc(Cl)cc23)CC1 (centres unmarked) [Compound 236],pest or weed control at 25 ppm,[5],50 to 100%
same,pest or weed control at 25 ppm,[6],1 to 25%
FC(F)(F)c1ccccc1CCN1CCN(Cc2ccc(Cl)s2)CC1 [Compound 81],mortality at 4000 µg/mL,[1],1 to 25%
same,mortality at 20 µg/mL,[2],1 to 25%
same,mortality at 4000 µg/mL,[3],1 to 25%
same,pest or weed control at 200 ppm,[4],50 to 100%
same,pest or weed control at 25 ppm,[5],50 to 100%
same,pest or weed control at 25 ppm,[6],50 to 100%
c1ccc(OCCN2CCN(Cc3ccccc3-c3ccccc3)CC2)cc1 [Compound 92],mortality at 4000 µg/mL,[1],1 to 25%
same,mortality at 20 µg/mL,[2],1 to 25%
same,mortality at 4000 µg/mL,[3],26 to 49%
same,pest or weed control at 200 ppm,[4],1 to 25%
same,pest or weed control at 25 ppm,[5],50 to 100%
same,pest or weed control at 25 ppm,[6],1 to 25%
c1ccc(CCN2CCN(Cc3ccccc3-c3ccccc3)CC2)cc1 [Compound 93],mortality at 4000 µg/mL,[1],1 to 25%
same,mortality at 20 µg/mL,[2],1 to 25%
same,mortality at 4000 µg/mL,[3],26 to 49%
same,pest or weed control at 200 ppm,[4],1 to 25%
same,pest or weed control at 25 ppm,[5],1 to 25%
same,pest or weed control at 25 ppm,[6],50 to 100%
O=C(C1CC1)N1CCN(Cc2ccc(OCc3ccccc3)cc2)CC1 [Compound 114],pest or weed control at 25 ppm,[5],1 to 25%
same,pest or weed control at 25 ppm,[6],50 to 100%
CCOCCN1CCN(Cc2ccc(OCc3ccccc3)cc2)CC1 [Compound 109],pest or weed control at 25 ppm,[5],1 to 25%
same,pest or weed control at 25 ppm,[6],50 to 100%

# Reference: patent publication US8338430B2, “N-substituted piperazines” (Dow AgroSciences, LLC., priority 2005, dated 2012)
